Reference: PubChem BioAssay AID330 (DTP/NCI, 2004)
Where “and” joins values, the source holds several entries; their conditions need not be identical. Equal values may be shown once. Toxic doses and inconclusive results are not listed. How the source made its calls: active means survival T/C of 150% or more; inactive means T/C below 125% in these data.

Test system: P388 leukemia ip, CD2F1 mice, survival T/C
Experiment: NCI In Vivo Anticancer Drug Screen. Data for tumor model P388 Leukemia (intraperitoneal) in CD2F1 (CDF1) mice
Settings: endpoint: median survival time, higher = longer survival
Summary of the method: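 Mice carrying the transplanted tumor received test compound or vehicle. Survival was recorded in each group, and the value is the treated-group measurement divided by that of the vehicle-treated control group.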

[1] = dose: 60.0 mg/kg/injection, schedule: Q01DX005 (ip), vehicle: saline with Tween-80
[2] = dose: 120.0 mg/kg/injection, schedule: Q01DX005 (ip), vehicle: saline with Tween-80
[3] = dose: 240.0 mg/kg/injection, schedule: Q01DX005 (ip), vehicle: saline with Tween-80
[4] = dose: 50.0 mg/kg/injection, schedule: Q01DX009 (ip), vehicle: Klucel (hydroxypropylcellulose) (HPC)
[5] = dose: 100.0 mg/kg/injection, schedule: Q01DX009 (ip), vehicle: Klucel (hydroxypropylcellulose) (HPC)
[6] = dose: 200.0 mg/kg/injection, schedule: Q01DX009 (ip), vehicle: Klucel (hydroxypropylcellulose) (HPC)
[7] = dose: 3.12 mg/kg/injection, schedule: Q01DX005 (ip), vehicle: Klucel (hydroxypropylcellulose) (HPC)
[8] = dose: 6.25 mg/kg/injection, schedule: Q01DX005 (ip), vehicle: Klucel (hydroxypropylcellulose) (HPC)
[9] = dose: 6.25 mg/kg/injection, schedule: Q01DX005 (ip), vehicle: saline with Tween-80
[10] = dose: 12.5 mg/kg/injection, schedule: Q01DX005 (ip), vehicle: Klucel (hydroxypropylcellulose) (HPC)
[11] = dose: 25.0 mg/kg/injection, schedule: Q01DX005 (ip), vehicle: Klucel (hydroxypropylcellulose) (HPC)
[12] = dose: 50.0 mg/kg/injection, schedule: Q01DX009 (ip), vehicle: saline
[13] = dose: 50.0 mg/kg/injection, schedule: Q01DX009 (ip), vehicle: suspension in saline
[14] = dose: 100.0 mg/kg/injection, schedule: Q01DX009 (ip), vehicle: suspension in saline
[15] = dose: 200.0 mg/kg/injection, schedule: Q01DX009 (ip), vehicle: suspension in saline
[16] = dose: 25.0 mg/kg/injection, schedule: Q01DX009 (ip), vehicle: saline with Tween-80
[17] = dose: 50.0 mg/kg/injection, schedule: Q01DX009 (ip), vehicle: saline with Tween-80
[18] = dose: 100.0 mg/kg/injection, schedule: Q01DX009 (ip), vehicle: saline with Tween-80

Measured: T/C

C=C(C)OC1NC(=O)Oc2ccccc21 (stereo unspecified)
inactive: [1] 98 % of control | [2] 109 % of control | [3] 100 % of control

CN(C)c1ccc(/C=C/c2nc3ccccc3s2)cc1
inactive: dose: 25.0 mg/kg/injection, schedule: Q01DX009 (ip), vehicle: Klucel (hydroxypropylcellulose) (HPC) 108 % of control | [4] 99 % of control | [5] 99 % of control | [6] 98 % of control

CCc1nc(N)nc(N)c1-c1ccc(NCCN)c([N+](=O)[O-])c1
inactive: [1] 113 % of control | [2] 116 % of control | [3] 116 % of control

CC(C)COC(=O)N1c2ccccc2C=CC1OCC(C)C (stereo unspecified)
inactive: dose: 1.56 mg/kg/injection, schedule: Q01DX005 (ip), vehicle: Klucel (hydroxypropylcellulose) (HPC) 104 % of control | [7] 100 % of control | [8] 104 % of control | [9] 109 % of control | dose: 12.5 mg/kg/injection, schedule: Q01DX005 (ip), vehicle: saline with Tween-80 112 % of control

CN(C)c1ccc(C(=C2C=CC(=Nc3ccccc3)c3ccccc32)c2ccc(N(C)C)cc2)cc1
inactive: [7] 100 % of control and 101 % of control | [8] 100 % of control and 104 % of control and 112 % of control | [10] 111 % of control and 114 % of control and 120 % of control | [11] 115 % of control and 118 % of control

CCOc1c(N=Nc2ccccc2OC)c(C)nn1C(=S)S
inactive: dose: 60.0 mg/kg/injection, schedule: Q01DX005 (ip), vehicle: Klucel (hydroxypropylcellulose) (HPC) 102 % of control | dose: 120.0 mg/kg/injection, schedule: Q01DX005 (ip), vehicle: Klucel (hydroxypropylcellulose) (HPC) 114 % of control | dose: 240.0 mg/kg/injection, schedule: Q01DX005 (ip), vehicle: Klucel (hydroxypropylcellulose) (HPC) 105 % of control

CSCCC(NP(=S)(c1ccccc1)c1ccccc1)C(=O)O (stereo unspecified)
inactive: [4] 104 % of control and 107 % of control | [5] 107 % of control | [6] 101 % of control and 94 % of control

CCCCCCNc1nc(NCCCCCC)c2[nH]c(NCCCCCC)nc2n1
inactive: dose: 50.0 mg/kg/injection, schedule: Q01DX005 (ip), vehicle: saline with Tween-80 122 % of control

CO[C@H]1[C@H]2OC(C)(C)O[C@H]2O[C@H]1/C=C1\CC(=O)NC1=O
inactive: [12] 111 % of control | [13] 96 % of control | dose: 100.0 mg/kg/injection, schedule: Q01DX009 (ip), vehicle: saline 116 % of control | [14] 104 % of control | [15] 110 % of control

c1cc2ccc1CCc1ccc(cc1)CC2
inactive: dose: 100.0 mg/kg/injection, schedule: Q01DX001 (ip), vehicle: saline sonified 90 % of control | dose: 200.0 mg/kg/injection, schedule: Q01DX001 (ip), vehicle: saline sonified 100 % of control | dose: 400.0 mg/kg/injection, schedule: Q01DX001 (ip), vehicle: saline sonified 100 % of control

CCOC(=O)/C(=C/c1ncnc2nc[nH]c12)C(F)(F)C(=O)OCC
inactive: dose: 25.0 mg/kg/injection, schedule: Q04DX003 (ip), vehicle: saline 97 % of control | dose: 50.0 mg/kg/injection, schedule: Q04DX003 (ip), vehicle: saline 100 % of control | dose: 100.0 mg/kg/injection, schedule: Q04DX003 (ip), vehicle: saline 99 % of control

COC(=O)N1C=CC2ON=C(S(=O)(=O)c3ccccc3)C2C1 (stereo unspecified)
inactive: [1] 108 % of control | [2] 95 % of control | [3] 98 % of control

CC(C)N1C(=O)NC2C1NC(=O)N2C(C)C (stereo unspecified) (tested in a mixture with another compound)
inactive: [1] 106 % of control | [2] 105 % of control | [3] 105 % of control

CSc1nc(C)c(Br)c(N2CC2)n1
inactive: [7] 89 % of control | [8] 110 % of control and 94 % of control | [10] 99 % of control and 110 % of control | [11] 120 % of control and 89 % of control and 97 % of control | dose: 50.0 mg/kg/injection, schedule: Q01DX005 (ip), vehicle: Klucel (hydroxypropylcellulose) (HPC) 101 % of control and 102 % of control | dose: 100.0 mg/kg/injection, schedule: Q01DX005 (ip), vehicle: Klucel (hydroxypropylcellulose) (HPC) 105 % of control

O=[N+]([O-])c1ccc(N(CCO)CCO)c2c1no[n+]2[O-]
inactive: dose: 3.12 mg/kg/injection, schedule: Q01DX005 (ip), vehicle: saline with Tween-80 117 % of control | [9] 122 % of control | dose: 8.0 mg/kg/injection, schedule: Q04DX003 (ip), vehicle: saline 111 % of control | dose: 16.0 mg/kg/injection, schedule: Q04DX003 (ip), vehicle: saline 121 % of control

CS(=O)(=O)OCCCl
inactive: [16] 105 % of control and 108 % of control | [17] 107 % of control and 112 % of control | dose: 75.0 mg/kg/injection, schedule: Q01DX005 (ip), vehicle: saline with Tween-80 113 % of control and 86 % of control | dose: 75.0 mg/kg/injection, schedule: Q01DX009 (ip), vehicle: saline with Tween-80 102 % of control | dose: 100.0 mg/kg/injection, schedule: Q01DX001 (ip), vehicle: saline with Tween-80 100 % of control | dose: 100.0 mg/kg/injection, schedule: Q01DX005 (ip), vehicle: saline with Tween-80 114 % of control and 94 % of control | [18] 111 % of control | dose: 200.0 mg/kg/injection, schedule: Q01DX001 (ip), vehicle: saline with Tween-80 110 % of control

C[C@H]1C(=O)N(C)C(=O)[C@@H]1N
inactive: dose: 50.0 mg/kg/injection, schedule: Q01DX005 (ip), vehicle: saline 97 % of control | dose: 100.0 mg/kg/injection, schedule: Q01DX005 (ip), vehicle: saline 97 % of control | dose: 200.0 mg/kg/injection, schedule: Q01DX005 (ip), vehicle: saline 95 % of control

O=C(CC(C(=O)c1ccccc1)N1CC1)c1ccccc1 (stereo unspecified)
inactive: dose: 6.25 mg/kg/injection, schedule: Q01DX009 (ip), vehicle: saline with Tween-80 95 % of control | dose: 12.5 mg/kg/injection, schedule: Q01DX009 (ip), vehicle: saline with Tween-80 100 % of control | [16] 100 % of control and 87 % of control | [17] 116 % of control | [18] 91 % of control

N#CC(C(=O)C(=O)Nc1ccc(Cl)cc1)c1c(Cl)cccc1Cl (stereo unspecified)
inactive: dose: 100.0 mg/kg/injection, schedule: Q04DX002 (ip), vehicle: saline with Tween-80 105 % of control | dose: 200.0 mg/kg/injection, schedule: Q04DX002 (ip), vehicle: saline with Tween-80 108 % of control | dose: 400.0 mg/kg/injection, schedule: Q04DX002 (ip), vehicle: saline with Tween-80 97 % of control

COc1ccc(C2C(C(=O)OCc3ccccc3)=C(C)NC(C)=C2C(=O)OCc2ccccc2)cc1
inactive: dose: 0.78 mg/kg/injection, schedule: Q01DX009 (ip), vehicle: distilled water + Tween-80 98 % of control | dose: 1.56 mg/kg/injection, schedule: Q01DX009 (ip), vehicle: distilled water + Tween-80 93 % of control | dose: 3.13 mg/kg/injection, schedule: Q01DX009 (ip), vehicle: distilled water + Tween-80 88 % of control and 93 % of control | dose: 6.25 mg/kg/injection, schedule: Q01DX009 (ip), vehicle: distilled water + Tween-80 92 % of control | dose: 12.5 mg/kg/injection, schedule: Q01DX009 (ip), vehicle: distilled water + Tween-80 87 % of control and 92 % of control | dose: 25.0 mg/kg/injection, schedule: Q01DX009 (ip), vehicle: distilled water + Tween-80 95 % of control

CSC(SC)c1cc(C)no1
inactive: [1] 107 % of control | [2] 101 % of control | [3] 103 % of control

Cc1nc2c(c(-c3ccccc3)n1)Cc1c(ccc3ccccc13)O2
inactive: [17] 96 % of control | [18] 102 % of control | dose: 200.0 mg/kg/injection, schedule: Q01DX009 (ip), vehicle: saline with Tween-80 99 % of control | dose: 400.0 mg/kg/injection, schedule: Q01DX009 (ip), vehicle: saline with Tween-80 92 % of control

Cn1nccc1N
inactive: dose: 25.0 mg/kg/injection, schedule: Q01DX009 (ip), vehicle: saline 117 % of control | [12] 108 % of control

Cc1ccc(NC(=S)SCc2ccc3c(c2)OCO3)cc1Cl
inactive: [13] 106 % of control | [14] 94 % of control | [15] 102 % of control

COc1cc(C2c3cc4c(cc3C(OC3CCCCO3)C3COC(=O)C23)OCO4)cc(OC)c1OC (stereo unspecified)
inactive: [7] 117 % of control
